# Assay results taken from patent US20080227134A9, “Glyoxylate assays and their use of inden tifying natural amidated compounds” (priority 2005, published 2008).
# Columns and labels:
# [1] = biological target: T1, Glyoxal oxidase (Phanerodontia chrysosporium, UniProt Q01772); conditions: cited from earlier work
# T1 sequence (Q01772 23-559): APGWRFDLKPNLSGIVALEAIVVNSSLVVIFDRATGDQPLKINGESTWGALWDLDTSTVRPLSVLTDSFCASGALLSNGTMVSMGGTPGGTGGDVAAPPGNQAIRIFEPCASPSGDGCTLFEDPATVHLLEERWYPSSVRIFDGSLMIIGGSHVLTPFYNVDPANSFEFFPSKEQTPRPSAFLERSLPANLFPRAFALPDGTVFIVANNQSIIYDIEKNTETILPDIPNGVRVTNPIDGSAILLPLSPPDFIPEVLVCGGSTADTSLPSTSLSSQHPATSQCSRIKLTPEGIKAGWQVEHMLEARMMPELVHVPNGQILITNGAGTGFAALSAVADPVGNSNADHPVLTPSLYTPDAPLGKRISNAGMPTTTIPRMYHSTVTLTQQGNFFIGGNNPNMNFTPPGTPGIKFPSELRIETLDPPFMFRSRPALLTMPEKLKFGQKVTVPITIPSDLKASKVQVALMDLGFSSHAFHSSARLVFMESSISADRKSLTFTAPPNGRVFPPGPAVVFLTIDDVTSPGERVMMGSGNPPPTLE
# [2] = biological target: T1, Glyoxal oxidase; assay: Effect of PAM reductant on glyoxal oxidase activity and glyoxylate assays; type: biochemical; design: Dr. James Whittaker, OGI School of Science and Engineering (gift); conditions: reductant for PAM catalysis
# Description: Application of the assays of the invention to the quantification of PAM-produced glyoxylate required two alterations of the PAM assay, as well as one change to the common glycolate oxidase assay which has previously been mentioned. Without these specific alterations the assays would be rendered non-stoichiometric and produce anomalous data. First, to address the changes to the PAM assay, a new method for enzyme protection due to hydroxyl radical formation produced during catalysis was necessary as the use of catalase has previously been the method of choice. Catalase catalyzes the disproportionate reaction of H2O2 to H2O and O2, and removal of hydrogen peroxide is detrimental to the assay methods. […] Second, a reducing agent is necessary for the PAM catalysis. Ascorbate is frequently used in the art for this purpose. […] As an alternative to the foregoing, ascorbate may be used in the PAM-catalyzed reaction, but later removed (e.g., by deactivating with ascorbate oxidase) prior to assaying for glyoxylate.
# [3] = biological target: T2, peptidylglycine α-amidating monooxygenase (Rattus norvegicus, UniProt P14925); assay: PAM treatment of hippurate: benzamide by HPLC, glyoxylate by malate synthase/malate dehydrogenase/MTS/PMS system; type: biochemical; conditions: for Benzamide Produced / Glyoxylate Produced: PAM added to 2.5 mM hippurate
# T2 sequence (P14925 36-976): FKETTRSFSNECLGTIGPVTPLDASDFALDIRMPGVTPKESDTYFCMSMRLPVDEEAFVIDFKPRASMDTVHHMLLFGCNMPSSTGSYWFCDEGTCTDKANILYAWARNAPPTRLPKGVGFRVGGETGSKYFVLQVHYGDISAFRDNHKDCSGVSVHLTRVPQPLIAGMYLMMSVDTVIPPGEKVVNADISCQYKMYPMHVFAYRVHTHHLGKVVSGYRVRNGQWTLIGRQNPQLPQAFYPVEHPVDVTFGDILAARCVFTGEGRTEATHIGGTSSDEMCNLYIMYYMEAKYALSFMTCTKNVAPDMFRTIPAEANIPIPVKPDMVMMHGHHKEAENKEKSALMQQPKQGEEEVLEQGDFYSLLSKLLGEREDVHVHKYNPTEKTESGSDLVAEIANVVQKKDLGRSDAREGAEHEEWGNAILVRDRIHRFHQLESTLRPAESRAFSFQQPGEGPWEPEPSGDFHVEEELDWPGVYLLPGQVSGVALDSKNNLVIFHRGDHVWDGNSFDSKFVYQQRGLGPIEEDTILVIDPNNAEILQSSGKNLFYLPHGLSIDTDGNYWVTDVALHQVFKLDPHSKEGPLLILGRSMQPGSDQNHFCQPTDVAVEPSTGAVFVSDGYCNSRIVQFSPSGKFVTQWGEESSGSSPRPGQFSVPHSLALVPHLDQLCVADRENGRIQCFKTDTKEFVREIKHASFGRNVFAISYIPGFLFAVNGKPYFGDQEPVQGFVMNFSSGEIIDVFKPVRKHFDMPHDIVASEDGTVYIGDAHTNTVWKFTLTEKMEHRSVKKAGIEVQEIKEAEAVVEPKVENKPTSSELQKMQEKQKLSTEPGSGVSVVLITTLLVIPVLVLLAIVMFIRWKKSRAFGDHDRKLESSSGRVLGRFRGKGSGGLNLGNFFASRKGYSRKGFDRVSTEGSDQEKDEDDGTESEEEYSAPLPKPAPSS
# Description: Hippurate (N-benzoylglycine, C6H5-CO—NH—CH2-COO^−) is a PAM substrate that is oxidatively converted to benzamide and glyoxylate. […] At 10 min intervals over a period of 110 minutes, 45 μl aliquots may be removed and added to 10 μl of 6% (v/v) trifluoroacetic acid to terminate the reaction. Percent conversion of hippurate to benzamide may be determined at each time interval by reverse-phase HPLC.
# Approximately 20 nanomoles of glyoxylate may be removed from the HPLC vials and added to a 0.9 ml solution that contain necessary components for the glyoxylate assay excluding the enzyme couple and MTS/PMS. Ascorbate may be eliminated from all samples, prior to glyoxylate determination, with 10 min incubation in the presence of 12 units of ascorbate oxidase at 37° C. Following ascorbate removal the addition of 100 μl enzyme couple and PMS/MTS may bring the assay to a final volume of 1 ml which contains 100 mM TEA-HC1 pH 7.8, 10 MM MgCl2, 400 μM acetyl-CoA, 500 μM NAD^+, 6 U/ml malate synthase, 6 U/ml malate dehydrogenase, and 12 units ascorbate oxidase. The glyoxylate concentration may be determined by measuring the absorbance increase at 490 nm after incubation at 37° C. for 1 hr. A control for this experiment was performed at each time point, and contained no hippurate.
# [4] = biological target: T3, PAM (Rattus norvegicus, UniProt P14925); assay: PAM dependent conversion of N-dansyl-Tyr-Val-Gly verified by RP-HPLC; type: biochemical; conditions: 20 μM substrate, PAM 15 U/L, 1.0 mM catechol, one hour at 37° C.
# T3 construct: Unigene Labs, Inc. (Fairfield, N.J.), gift
# T3 sequence (P14925 36-715 isoform P14925-2 limits assumed): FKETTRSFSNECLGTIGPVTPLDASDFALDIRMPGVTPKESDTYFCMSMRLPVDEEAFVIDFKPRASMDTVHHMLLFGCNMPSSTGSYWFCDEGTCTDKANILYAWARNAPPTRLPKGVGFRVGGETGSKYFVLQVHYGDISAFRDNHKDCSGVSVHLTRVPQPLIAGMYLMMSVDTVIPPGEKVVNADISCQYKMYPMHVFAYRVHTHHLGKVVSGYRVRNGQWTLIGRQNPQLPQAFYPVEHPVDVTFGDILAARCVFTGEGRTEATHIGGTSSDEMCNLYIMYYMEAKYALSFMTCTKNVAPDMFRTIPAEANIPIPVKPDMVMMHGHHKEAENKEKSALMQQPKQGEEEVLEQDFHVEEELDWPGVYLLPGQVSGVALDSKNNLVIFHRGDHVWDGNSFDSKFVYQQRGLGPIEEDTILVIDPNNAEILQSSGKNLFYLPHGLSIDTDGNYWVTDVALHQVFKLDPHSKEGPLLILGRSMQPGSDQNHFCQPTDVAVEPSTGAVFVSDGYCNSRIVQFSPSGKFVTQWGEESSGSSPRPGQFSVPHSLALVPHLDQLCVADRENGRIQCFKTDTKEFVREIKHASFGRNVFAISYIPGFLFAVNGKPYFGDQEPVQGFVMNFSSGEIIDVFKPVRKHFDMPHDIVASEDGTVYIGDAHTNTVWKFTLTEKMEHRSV
# Description: Glyoxylate production was initiated by the addition of PAM (15 U/L) to a solution containing 40 mM MES/NaOH pH 6.0, 10 U/ml HRP, 1.0 mM catechol, 0.5 μM CU(SO4), 20 μM dansyl-Tyr-Val-Gly, the reaction proceeded for one hour at 37° C. […] The complete PAM dependent conversion of 20 μM N-dansyl-Tyr-Val-Gly to N-dansyl-Tyr-Val-NH2 and glyoxylate was verified by RP-HPLC to quantify the exact concentrations of [dansyl-Tyr-Val-NH2] and [glyoxylate] (100% conversion, 20 μM N-dansyl-Tyr-Val-NH2 and glyoxylate). Aliquots of the PAM produced glyoxylate pertaining to variable concentrations (0.3, 0.7, 1.6, and 2.3, μM) of were utilized for analysis by the GLOX assay. Aliquots of glyoxylate were added to a solution of 50 mM sodium phosphate pH 6.0, 50 μM Amplex red, at HRP (1 U/ml) and a final concentration of 0.4 mg/ml GLOX. All samples were incubated for 1 hour at 37° C. for one hour.
# Glyoxylate production was initiated by the addition of PAM (15 U/L) to a solution containing 40 mM MES/NaOH pH 6.0, 10 U/ml HRP, 1.0 mM catechol, 0.5 μM Cu(SO4), 20 μM dansyl-Tyr-Val-Gly, the reaction proceeded for one hour at 37° C. The PAM dependent conversion of 20 μM N-dansyl-Tyr-Val-Gly to N-dansyl-Tyr-Val-NH2 and glyoxylate was verified to be 100% by a RP-HPLC assay, to ensure a 20 μM PAM produced glyoxylate solution. […]
compound,measurement,setting,value
CC(=O)C=O [Methylglyoxal],Km,[1],640 µM
Oc1ccccc1O [catechol],"inhibition of the enzyme activity of glyoxal oxidase and of the spectrophotometric, fluorescent and luminescent assays",[2],not an inhibitor
O=CC(=O)O [glyoxylic acid],Km,[1],2500 µM
same,"kcat/KM ratio, activity compared to methylglyoxal",[1],12.4%
"O=C(O)CNC(=O)c1ccccc1 [hippurate, N-benzoylglycine]",[Glyoxylate]/[Benzamide],[3]; Time 40,1.2
same,Benzamide Produced,[3]; Time 40,0.58 mM
same,Glyoxylate Produced,[3]; Time 40,0.69 mM
same,[Glyoxylate]/[Benzamide],[3]; Time 50,0.96
same,Benzamide Produced,[3]; Time 50,0.70 mM
same,Glyoxylate Produced,[3]; Time 50,0.67 mM
same,[Glyoxylate]/[Benzamide],[3]; Time 60,0.89
same,Benzamide Produced,[3]; Time 60,0.80 mM
same,Glyoxylate Produced,[3]; Time 60,0.71 mM
same,[Glyoxylate]/[Benzamide],[3]; Time 70,0.83
same,Benzamide Produced,[3]; Time 70,0.90 mM
same,Glyoxylate Produced,[3]; Time 70,0.75 mM
same,[Glyoxylate]/[Benzamide],[3]; Time 80,0.79
same,Benzamide Produced,[3]; Time 80,0.98 mM
same,Glyoxylate Produced,[3]; Time 80,0.77 mM
same,[Glyoxylate]/[Benzamide],[3]; Time 90,1.2
same,Benzamide Produced,[3]; Time 90,1.1 mM
same,Glyoxylate Produced,[3]; Time 90,1.3 mM
same,[Glyoxylate]/[Benzamide],[3]; Time 100,1.1
same,Benzamide Produced,[3]; Time 100,1.2 mM
same,Glyoxylate Produced,[3]; Time 100,1.3 mM
same,[Glyoxylate]/[Benzamide],[3]; Time 110,1.0
same,Benzamide Produced,[3]; Time 110,1.3 mM
same,Glyoxylate Produced,[3]; Time 110,1.3 mM
N-dansyl-Tyr-Val-Gly,PAM dependent conversion to N-dansyl-Tyr-Val-NH2 and glyoxylate,[4],100%
